Marks after values point to notes of the source that are not given here. No end group written: not given here.

Test [1] concerns the target CXCL12WT self-association. The settings on record: in 100 mM sodium phosphate; cited from earlier work.
The next test concerns the target CXCL12_1 (Homo sapiens, UniProt P48061, I79C/L76C). In words: 2D 1H-15N HSQC NMR titration of CXCR4 peptides into CXCL12_1. Format: binding. The settings on record: ΔG = −RT ln Kd @ 298 K.
The target in the next test is CXCL12_2 (Homo sapiens, UniProt P48061, A86C/L57C). Briefly: 2D 1H-15N HSQC NMR titration of CXCR4 peptides into CXCL12_2. The class given is binding. The settings on record: ΔG = −RT ln Kd @ 298 K.
The target of the next test is CXCL12WT (Homo sapiens, UniProt P48061). The note with it: ΔG = −RT ln Kd @ 298 K, calculated from Veldkamp et al.; cited from earlier work.

As to “CXCL12WT: wild type chemokine CXCL12 (stromal cell-derived factor-1/SDF-1)”, the Kd of self-association in test [1] is recorded as 140 µM.
Turning to “GMMEGISIYTSDNYTEEMGSGDYDSMKEPCFREENANFNK [CXCR4_1–38]”, the ΔG on CXCL12_1 is -7.43 kcal/mol; at CXCL12_2 it was -8.24 kcal/mol; at CXCL12WT it was −7.29 ^* kcal mol^−1.

Source of the values: article PMC3783652 (ACS chemical biology, 2013).
